The text below walks through data of US20230293483A1, “COMPOSITION FOR PREVENTING OR TREATING LIVER DISEASE, COMPRISING ICARITIN AND QUERCETIN” (INDUSTRY-ACADEMIC COORPERATION FOUNDATION DAEGU HAANY …, priority 2020, published 2023).

The data set concerns HepG2 cells. The data set is described as follows: Cell viability test (MTT assay) against oxidative stress induced by AA+iron. It is filed as cell-based, human. The following applies: for hepatocellular protective effect (cell viability): AA+iron in HepG2, compared with genistein and luteolin at the same concentration, FIG. 1. As for the experimental part:
HepG2 cell, a human-derived liver parenchymal cell line, was purchased from the American Type Culture Collection (ATCC, Rockville, MD, USA). Dulbecco's modified Eagle's medium (DMEM; Gibco) mixed with heat-treated 10% fetal bovine serum (FBS; Gibco), 100 units/ml of penicillin, and 100 μg/mL of streptomycin (Gibco) was used to culture HepG2 cells in an incubator maintained at 37° C. and 5% CO2 conditions. Cells were cultured in a 100 mm dish to a confluence of 80% or more, and subcultured twice a week at a ratio of 1:4. After serum-starvation for 12 hours, drugs were treated at different concentrations, and 1 hour later, 10 μM of AA was treated for 12 hours, and then treated with 5 μM of iron, and further cultured for 5 hours.
Cell viability was measured by MTT assay. HepG2 cells were dispensed in 0.5 mL/well at a concentration of 2×10^5 cells/well in a 24-well plate, and then cultured for 24 hours. After serum was depleted for 12 hours, the drug was treated for 1 hour, and then 10 μM of AA was treated for 12 hours, and 5 μM of iron was added and cultured for 5 hours. Herein, 300 μL of MTT 0.5 mg/mL per well was treated and reacted at 37° C. for 2 hours. After carefully removing the medium and dissolving formazan crystals produced by reducing MTT with dimethylsulfoxide (DMSO), absorbance was measured at 570 nm using a microplate measuring instrument (Tecan Infinite M200 PRO, USA).
In addition, in order to identify the cell viability according to the mixed use of icaritin and quercetin according to the results of FIG. 1, HepG2 cells were dispensed in 2×10^5 cells/well into a 24-well plate and cultured for 24 hours. After treatment for 1 hour at the concentrations shown in Table 1 below, 10 μM of AA was treated for 12 hours, and 5 μM of iron was added and cultured for 5 hours. […] The absorbance was measured at 570 nm using a microplate measuring instrument (Tecan Infinite M200 PRO, USA).
In general terms: Formazan colour is commonly taken as a measure of viable cells.

For `COc1ccc(-c2oc3c(CC=C(C)C)c(O)cc(O)c3c(=O)c2O)cc1` [Comparative Example 1, icaritin], the “hepatocellular protective effect (cell viability)” value was “most significant hepatocellular protective effects”. Consider `O=c1c(O)c(-c2ccc(O)c(O)c2)oc2cc(O)cc(O)c12` [Comparative Example 2, quercetin], for which the “hepatocellular protective effect (cell viability)” value is reported as “most significant hepatocellular protective effects”. Besides, the cell viability entry (HepG2, drug 1 h, then 10 μM AA 12 h + 5 μM iron 5 h, MTT, FIG. 2) is “about 47.9±0.4%”.
